Test results taken from patent US12378249B2, “Isoquinoline compounds and uses thereof” (Genentech, Inc., priority 2018, dated 2025).

Legend:
[1] = system: primary human pan T cells; assay: Human T-cell IL2 Induction Assay; assay type: cell-based; conditions: anti-CD3/anti-CD28 stimulated, 4 hours
Experimental: Example B3: Human T-cell IL2 Induction Assay
Anti-CD3 and anti-CD28 activates TCR signaling in primary human pan T cells leading to IL-2 promoter induction. Secreted IL-2 in cell culture supernatant is detected by electrochemiluminescence using a capture antibody against IL-2 and an anti-IL-2 antibody labeled with SULFO-tag.
See www.mesoscale.com for additional electrochemiluminescence technology information.
Incubate primary human pan T cells with varying concentrations of test compounds for 30 minutes in a humidified incubator at 37° C. and 5% CO2. Transfer cells to a plate pre-coated with a fixed concentration of anti-human CD3 (determined separately for each donor lot) and add soluble anti-human CD28 (final concentration=1 μg/ml). Stimulate cells in a humidified incubator at 37° C. and 5% CO2 for 4 hours. Transfer 25 μl of supernatant to a MSD single spot plate pre-coated with an anti-human IL-2 antibody. Incubate MSD plate overnight at 4° C. with gentle shaking. Wash MSD plate 4× with wash buffer. Add SULFO-tagged detection antibody at a 1:50 dilution and incubate at room temperature shaking for 2 hours. Wash MSD plate 4× with wash buffer and add 150 μl 2×MSD read buffer. Read on an MSD instrument. Normalize data to stimulated/untreated controls to calculate % activity at each concentration of compound.
• Frozen Primary Human Pan-T Cells (StemCell Technologies #70024) • anti-human CD3 (OKT3 clone) (eBioscience #16-0037-81) • anti-human CD28 (CD28.2 clone) (BD #555725) • 96-well Human IL-2 tissue culture kit (MSD #K151AHB-4) Instrumentation: • Biomek FX for liquid handling (Beckman Coulter) • MSD SECTOR S 600 (Meso Scale Discovery)
Exemplary compounds of Formula (I) were tested in the human T-cell IL-2 induction assays. The % increase measured for IL-2 in cells treated by the test compounds relative to untreated cells are provided in Table B2 for certain compounds.

[2] = target: HPK1 (Homo sapiens (Human), UniProt Q92918, S171E/T165E); assay: HPK1-FL HTRF Enzymatic Assay (HTRF); assay type: biochemical; conditions: HPK full length T165E S171E 0.125 nM, ATP 1 mM, Biotin-SLP76 100 nM, read-out: HPK1 Ki (nM), H = HTRF
HPK1, sequence (Q92918 whole entry T165E/S171E): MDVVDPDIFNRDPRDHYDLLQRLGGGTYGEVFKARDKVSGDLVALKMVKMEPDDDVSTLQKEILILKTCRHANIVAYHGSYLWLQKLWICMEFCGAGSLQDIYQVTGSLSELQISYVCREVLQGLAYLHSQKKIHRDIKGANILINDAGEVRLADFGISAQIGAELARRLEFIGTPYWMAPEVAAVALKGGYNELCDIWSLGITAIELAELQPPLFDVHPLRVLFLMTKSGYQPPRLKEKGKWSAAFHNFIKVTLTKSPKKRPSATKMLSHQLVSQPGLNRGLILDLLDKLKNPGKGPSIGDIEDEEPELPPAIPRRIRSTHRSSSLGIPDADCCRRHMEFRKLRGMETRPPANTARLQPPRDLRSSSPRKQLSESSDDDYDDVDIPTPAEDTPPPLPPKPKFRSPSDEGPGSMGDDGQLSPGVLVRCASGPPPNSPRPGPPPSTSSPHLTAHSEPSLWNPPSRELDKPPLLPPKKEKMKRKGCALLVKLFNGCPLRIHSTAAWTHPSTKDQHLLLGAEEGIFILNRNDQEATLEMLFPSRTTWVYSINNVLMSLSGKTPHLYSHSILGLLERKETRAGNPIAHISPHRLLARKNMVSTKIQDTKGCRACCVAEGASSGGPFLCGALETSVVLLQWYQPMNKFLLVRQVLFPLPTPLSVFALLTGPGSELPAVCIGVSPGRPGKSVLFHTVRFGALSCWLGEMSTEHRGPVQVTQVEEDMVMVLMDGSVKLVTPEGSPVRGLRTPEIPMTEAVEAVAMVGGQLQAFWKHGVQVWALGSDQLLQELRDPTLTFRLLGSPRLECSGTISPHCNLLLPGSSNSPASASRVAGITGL
Method in brief: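 Ki derived from % activity calculated from the TR-FRET 665/620 ratio, using Eu-anti-pSLP76 and SA-XL665 detection added for 60 min. Reaction: compound preincubated 30 min with full-length double-mutant HPK1, then 60 min with Biotin-SLP-76 and 1 mM ATP, pH 7.5 HEPES buffer.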

Ki [2] [nM]	SMILES	% IL-2 increase relative to untreated cells ([1]; assayed concentration 0.10 μM) [%]	% IL-2 increase relative to untreated cells ([1]; assayed concentration 0.31 μM) [%]
0.068	Cc1c(N)cncc1-c1cc2cc(Nc3cc4n(n3)CC(=O)N(C(C)C)CC4)ncc2c(C)c1C#N [Compound 130, 6-(5-amino-4-methyl-3-pyridyl)-3-[(6-isopropyl-7-oxo-5,8-dihydro-4H-pyrazolo[1,5-d][1,4]diazepin-2-yl)amino]-8-methyl-isoquinoline-7-carbonitrile]	308	–
0.05	Cc1c(N)cncc1-c1cc2cc(Nc3cc4n(n3)CC(=O)N(C(C)C)CC4)ncc2cc1F [Compound 119, 2-((6-(5-amino-4-methylpyridin-3-yl)-7-fluoroisoquinolin-3-yl)amino)-6-isopropyl-5,6-dihydro-4H-pyrazolo[1,5-d][1,4]diazepin-7(8H)-one]	542	–
0.086	Cc1c(N)cncc1-c1cc2cc(Nc3cc4n(n3)CC(=O)N(C(C)C)CC4)ncc2cc1Cl [Compound 140, 2-((6-(5-amino-4-methylpyridin-3-yl)-7-chloroisoquinolin-3-yl)amino)-6-isopropyl-5,6-dihydro-4H-pyrazolo[1,5-d][1,4]diazepin-7(8H)-one]	304	–
0.065	Cc1c(N)cncc1-c1cc2cc(Nc3cc4n(n3)CC(=O)N(C(C)C)CC4)ncc2c(F)c1F [Compound 118, 2-((6-(5-amino-4-methylpyridin-3-yl)-7,8-difluoroisoquinolin-3-yl)amino)-6-isopropyl-5,6-dihydro-4H-pyrazolo[1,5-d][1,4]diazepin-7(8H)-one]	–	400
